According to PMC12445744, “Molecular docking to homology models of human and Trypanosoma brucei ERK8 that identified ortholog-specific inhibitors” (PLOS Neglected Tropical Diseases, 2025):
Where “and” joins values, the source holds several entries; their conditions need not be identical. Equal entries are not always repeated.

Biological target: T1, HsERK8 (Homo sapiens, UniProt Q8TD08)
T1 construct: plasmid pGEX2T expressing the full-length hERK8 coding region; made in house; host or cells: Escherichia coli Rosetta 2 (DE3)
T1 sequence (Q8TD08 1-544): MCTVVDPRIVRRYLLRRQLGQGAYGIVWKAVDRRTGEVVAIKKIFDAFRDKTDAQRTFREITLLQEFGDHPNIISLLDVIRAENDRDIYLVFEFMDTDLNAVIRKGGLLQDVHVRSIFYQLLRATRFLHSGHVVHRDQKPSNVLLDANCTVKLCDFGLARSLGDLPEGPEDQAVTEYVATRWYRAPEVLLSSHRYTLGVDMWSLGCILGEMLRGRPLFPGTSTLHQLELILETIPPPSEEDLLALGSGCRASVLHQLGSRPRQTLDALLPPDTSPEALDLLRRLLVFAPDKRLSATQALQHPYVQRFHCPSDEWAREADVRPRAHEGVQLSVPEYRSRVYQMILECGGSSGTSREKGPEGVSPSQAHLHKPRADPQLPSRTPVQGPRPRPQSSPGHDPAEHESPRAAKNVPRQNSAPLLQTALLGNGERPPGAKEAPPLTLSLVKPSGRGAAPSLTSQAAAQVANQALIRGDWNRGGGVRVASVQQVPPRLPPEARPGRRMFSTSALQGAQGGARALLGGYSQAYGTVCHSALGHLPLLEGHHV
Experiment: Luciferase-based kinase inhibition assay (ATP luminescence), GST-tagged HsERK8 with MBP substrate
Assay type: biochemical
Conditions: for raw luminescence, HsERK8: replicate wells; for Luminescence Raw (Kinase-Glo): HsERK8
Description: Escherichia coli strain Rosetta 2 (DE3) (Cat# 71397, MilliporeSigma, Burlington, MA) was transformed with the plasmid pGEX2T expressing the full-length hERK8 coding region or pGSTAg expressing the full-length TbERK8 coding region. One liter of Terrific Broth media containing 100 μg/ml Ampicillin and 30 μg/ml chloramphenicol in 2 L baffled flasks was inoculated with 25 mL from an overnight culture of Rosetta 2 strains harboring either the pGEX2T-hERK8 or pGSTAg-TbERK8 plasmid. Two baffled flasks were inoculated with each overnight strain and incubated and shaken at 175 RPM in a New Brunswick Innova 44R Incubator Shaker (Fischer Scientific, Pittsburgh, PA) at 37 °C until the cultures reached an O.D.600 of 0.94. Once the cultures in the flask reached the target O.D.600, the flasks were cooled to 4 °C in an ice water bath. The cooled cultures were induced by adding isopropyl β-D-1-thiogalactopyranoside (IPTG) to a final concentration of 0.1 mM and shaken at 16 °C for 16 hours at 175 RPM in a New Brunswick Innova 44R Incubator Shaker (Fischer Scientific, Pittsburgh, PA). On the next day, the cultures were pelleted by centrifugation at 9000 xg in a JLA 10.500 rotor (Beckman Coulter; Brea, CA), and the media was decanted. The pellet was flash-frozen in liquid nitrogen and then thawed on ice. The thawed pellet was resuspended in lysis buffer (25 mM Tris, 75 mM NaCl, 0.5% TritonX-100 and 0.5% Nonidet P-40, 1 mM phenylmethanesulfonyl fluoride, 1 mM benzamidine⋅HCl) and lysed using a microfluidizer M-110P from Microfluidics (Westwood, MA). The crude lysates were clarified by centrifugation at 140,000 xg in a 45Ti rotor (Beckman Coulter, Brea, CA) for 30 min at 4°C. The clarified lysate was loaded by gravity to a 3 mL glutathione agarose resin column (Cat# G-250–10, GOLDBIO, St. Louis, MO) formed in a 1.5 × 20 cm glass chromatography column (Cat# 7371522, Bio-Rad, Hercules, CA). The column was washed with 30 mL of PBS (pH 7.4) containing 1 mM DTT. Elution buffer (50 mM Tris buffer pH 8.0 containing 10 mM reduced glutathione and 1 mM DTT was added to the washed column), and 1 mL fractions were collected by gravity and examined by SDS-PAGE stained by Coomassie dye. Peak fractions pooled from the elution were dialyzed (4x 1:500 dilutions) in kinase buffer (30 mM Tris, pH 7.4, 10 mM MgCl2, 1 mM DTT, 5% glycerol).
We performed kinase assays in buffer K (30 mM Tris pH 7.4, 10 mM MgCl2, 1 mM DTT, 5% glycerol, 50 μM ATP, and 0.1 mg/mL BSA) at 30°C for 30 min in 30 μL reactions. GST-tagged HsERK8 and TbERK8 were tested using myelin basic protein (MBP) (Cat# 13–110, Millipore, Darmstadt, Germany) as the substrate at increasing concentrations to determine the optimal activity for the assay. ATP consumption was determined by adding equal volumes of the kinase assay reagent (Promega, Cat# V5601, Madison, WI) following the manufacturer’s protocol. Luminescence was measured using the microplate reader (SpectraMax L, Molecular Devices, Sunnyvale, CA).
These compounds were screened for kinase inhibition utilizing a luciferase-based assay. Briefly, the kinases were tested using MBP as the substrate at a 14-fold molar excess in 384-well flat-bottom white plates (BRANDTECH Scientific, Cat# 781681, Essex, CT). These compounds were tested at concentrations ranging from […] to 150 nM. The kinases plus MBP substrate reactions were incubated with each inhibitor for 30 minutes at 30°C. Equal volumes of kinase assay mix Promega (Cat# V5601, Madison, WI) were added to the kinase/inhibitor reaction after 30 minutes, following the manufacturer’s protocol. ATP luminescence was measured using a microplate reader (SpectraMax L, Molecular Devices, Sunnyvale, CA). IC50 values were calculated from assays done in triplicate by fitting the data using Prism 8.1.1 (GraphPad).

## C[C@]12C=CC(=O)C=C1CC[C@@H]1[C@@H]2[C@@H](O)C[C@@]2(C)[C@H]1CC[C@]2(O)C(=O)CO [Prednisolone]
  IC50: 300 µM
0.00015 mM compound, sheet ADP_ATP_glo081724 (3)
  raw luminescence, HsERK8: 2318.43 RLU and 2379.5 RLU and 1359.39 RLU
0.00015 mM compound, sheet Kinase_glo 08142024 (2)
  raw luminescence, HsERK8: 11527 RLU and 11136 RLU and 8980.24 RLU
0.00015 mM compound, sheet Kinase_glo_080924_IFPS (2)
  raw luminescence, HsERK8: 3541.75 RLU and 3582.18 RLU and 3076.85 RLU
0.00061 mM compound, sheet ADP_ATP_glo081724 (3)
  raw luminescence, HsERK8: 2825.09 RLU and 2949.5 RLU and 2422.48 RLU
0.00061 mM compound, sheet Kinase_glo 08142024 (2)
  raw luminescence, HsERK8: 11527 RLU and 11503.8 RLU and 9669.24 RLU
0.00061 mM compound, sheet Kinase_glo_080924_IFPS (2)
  raw luminescence, HsERK8: 3770.83 RLU and 3829.22 RLU and 3330.64 RLU
0.00244 mM compound, sheet ADP_ATP_glo081724 (3)
  raw luminescence, HsERK8: 3720.8 RLU and 3505.92 RLU and 3191.52 RLU
0.00244 mM compound, sheet Kinase_glo 08142024 (2)
  raw luminescence, HsERK8: 11998.3 RLU and 11782.7 RLU and 9967.25 RLU
0.00244 mM compound, sheet Kinase_glo_080924_IFPS (2)
  raw luminescence, HsERK8: 4143.65 RLU and 4112.2 RLU and 3658.53 RLU
0.00977 mM compound, sheet ADP_ATP_glo081724 (3)
  raw luminescence, HsERK8: 3641.63 RLU and 3797.7 RLU and 3386.04 RLU
0.00977 mM compound, sheet Kinase_glo 08142024 (2)
  raw luminescence, HsERK8: 11620 RLU and 11670.7 RLU and 9100.71 RLU
0.00977 mM compound, sheet Kinase_glo_080924_IFPS (2)
  raw luminescence, HsERK8: 4774.74 RLU and 5053.23 RLU and 4529.94 RLU
0.03906 mM compound, sheet ADP_ATP_glo081724 (3)
  raw luminescence, HsERK8: 4824.6 RLU and 4808.77 RLU and 4191.27 RLU
0.03906 mM compound, sheet Kinase_glo 08142024 (2)
  raw luminescence, HsERK8: 13839.2 RLU and 14168.9 RLU and 11317.8 RLU
0.03906 mM compound, sheet Kinase_glo_080924_IFPS (2)
  raw luminescence, HsERK8: 7209.85 RLU and 6169.43 RLU and 7796.61 RLU
0.15625 mM compound, sheet ADP_ATP_glo081724 (3)
  raw luminescence, HsERK8: 6885.18 RLU and 7183.74 RLU and 7394.1 RLU
0.15625 mM compound, sheet Kinase_glo 08142024 (2)
  raw luminescence, HsERK8: 27241.9 RLU and 27273.6 RLU and 25587 RLU
0.15625 mM compound, sheet Kinase_glo_080924_IFPS (2)
  raw luminescence, HsERK8: 10574.2 RLU and 11234.5 RLU and 10315.9 RLU
0.62500 mM compound, sheet ADP_ATP_glo081724 (3)
  raw luminescence, HsERK8: 8751.23 RLU and 9074.68 RLU and 6998.27 RLU
0.62500 mM compound, sheet Kinase_glo 08142024 (2)
  raw luminescence, HsERK8: 32595.4 RLU and 32278.4 RLU and 37446.9 RLU
0.62500 mM compound, sheet Kinase_glo_080924_IFPS (2)
  raw luminescence, HsERK8: 11504.5 RLU and 12982.8 RLU and 12069.3 RLU
2.50000 mM compound, sheet ADP_ATP_glo081724 (3)
  raw luminescence, HsERK8: 11083.2 RLU and 11176 RLU and 9323.49 RLU
2.50000 mM compound, sheet Kinase_glo 08142024 (2)
  raw luminescence, HsERK8: 34732.1 RLU and 34810.3 RLU and 30135.3 RLU
2.50000 mM compound, sheet Kinase_glo_080924_IFPS (2)
  raw luminescence, HsERK8: 16242.2 RLU and 17136.1 RLU and 14690.3 RLU
10.00000 mM compound, sheet ADP_ATP_glo081724 (3)
  raw luminescence, HsERK8: 12580.6 RLU and 13211.7 RLU and 13399.4 RLU
10.00000 mM compound, sheet Kinase_glo 08142024 (2)
  raw luminescence, HsERK8: 37851.6 RLU and 37726.9 RLU and 37092.9 RLU
10.00000 mM compound, sheet Kinase_glo_080924_IFPS (2), signal = ATP left
  raw luminescence, HsERK8: 19715.5 RLU and 19196.1 RLU and 19703.2 RLU
Inhibitor 0.00976562 mM, sheet Sil_Pred3, read 3
  Luminescence Raw (Kinase-Glo): 88068.9 and 93660.9 and 91592.3
Inhibitor 0.0195312 mM, sheet Sil_Pred3, read 3
  Luminescence Raw (Kinase-Glo): 91367.4 and 97331.9 and 97175
Inhibitor 0.0390625 mM, sheet Sil_Pred3, read 3
  Luminescence Raw (Kinase-Glo): 94347.3 and 94052.1 and 92142.9
Inhibitor 0.078125 mM, sheet Sil_Pred3, read 3
  Luminescence Raw (Kinase-Glo): 98578.2 and 105295 and 104564
Inhibitor 0.15625 mM, sheet Sil_Pred3, read 3
  Luminescence Raw (Kinase-Glo): 97978.5 and 103671 and 102378
Inhibitor 0.3125 mM, sheet Sil_Pred3, read 3
  Luminescence Raw (Kinase-Glo): 103442 and 105117 and 104861
Inhibitor 0.625 mM, sheet Sil_Pred3, read 3
  Luminescence Raw (Kinase-Glo): 118041 and 120665 and 116088
Inhibitor 0.00976562, sheet Sil_Pred1, read 1
  Luminescence Raw (Kinase-Glo): 100407 and 106564 and 102910
Inhibitor 0.00976562, sheet Sil_Pred2, read 2
  Luminescence Raw (Kinase-Glo): 90625.3 and 98037.5 and 95030.3
Inhibitor 0.0195312, sheet Sil_Pred1, read 1
  Luminescence Raw (Kinase-Glo): 105846 and 111118 and 110378
Inhibitor 0.0195312, sheet Sil_Pred2, read 2
  Luminescence Raw (Kinase-Glo): 95809.4 and 101447 and 100168
Inhibitor 0.0390625, sheet Sil_Pred1, read 1
  Luminescence Raw (Kinase-Glo): 108782 and 106859 and 106809
Inhibitor 0.0390625, sheet Sil_Pred2, read 2
  Luminescence Raw (Kinase-Glo): 97258.4 and 97956.1 and 97225.8
Inhibitor 0.078125, sheet Sil_Pred1, read 1
  Luminescence Raw (Kinase-Glo): 114996 and 120390 and 121203
Inhibitor 0.078125, sheet Sil_Pred2, read 2
  Luminescence Raw (Kinase-Glo): 101568 and 107854 and 109541
Inhibitor 0.15625, sheet Sil_Pred1, read 1
  Luminescence Raw (Kinase-Glo): 112780 and 119367 and 115572
Inhibitor 0.15625, sheet Sil_Pred2, read 2
  Luminescence Raw (Kinase-Glo): 101289 and 108375 and 104275
Inhibitor 0.3125, sheet Sil_Pred1, read 1
  Luminescence Raw (Kinase-Glo): 120905 and 121070 and 122162
Inhibitor 0.3125, sheet Sil_Pred2, read 2
  Luminescence Raw (Kinase-Glo): 107913 and 110173 and 110911
Inhibitor 0.625 (mM per sheet Pred3), sheet Kinase-Glo802124_Sil_Pred1, read 1, triplicate wells
  Luminescence Raw (Kinase-Glo): 138550 and 138736 and 130936
Inhibitor 0.625, sheet Sil_Pred2, read 2
  Luminescence Raw (Kinase-Glo): 122997 and 124612 and 121493
